According to patent publication US20150141381A1, “TETRACYCLINE COMPOUNDS HAVING TARGET THERAPEUTIC ACTIVITIES” (Paratek Pharmaceuticals, Inc., priority 2001, published 2015):
Where two headings read alike, the source gives them in different places.

Experiments:
S. aureus RN450 = assay: In Vitro Anti-Bacterial Activity Assay (MIC), gram positive; type: cell-based; settings: Staphylococcus aureus, RN450, 18 h
E. coli mL308 225 = assay: In Vitro Anti-Bacterial Activity Assay (MIC), gram negative; type: cell-based; settings: Escherichia coli, ML308225, 18 h
[1] = MIC class, Table 3, read-out: Antibiotic Activity Gram +
[2] = MIC class, Table 3, read-out: Antibiotic Activity Gram −
[3] = gram positive bacteria, read-out: Antibiotic Activity Gram + (MIC)
[4] = gram negative bacteria, read-out: Antibiotic Activity Gram − (MIC)
[5] = MIC class, Table 3 (Continued), read-out: Gram+ activity
[6] = MIC class, Table 3 (Continued), read-out: Gram− activity
[7] = read-out: Antibiotic Activity Gram +

Row | Compound | MIC (S. aureus RN450; [1]) [µg/mL] | MIC (E. coli mL308 225; [2]) [µg/mL] | MIC (S. aureus RN450; [3]) [µg/mL] | MIC (E. coli mL308 225; [4]) [µg/mL] | further results
1 | CCc1ccc(O)c2c1C[C@H]1C[C@H]3[C@@H](N(C)C)C(O)=C(C(N)=O)C(=O)[C@@]3(O)C(O)=C1C2=O [DM] | < 4 | > 4 | – | – | –
2 | C[C@H]1c2ccc(CN3CCC(F)(F)CC3)c(O)c2C(=O)C2=C(O)[C@]3(O)C(=O)C(C(N)=O)=C(O)[C@@H](N(C)C)[C@@H]3[C@@H](O)[C@@H]21 | – | – | < 4 | < 4 | –
3 | CN(C)c1ccc(O)c2c1C[C@H]1C[C@H]3[C@H]([N+](C)(C)C)C(O)=C(C(N)=O)C(=O)[C@@]3(O)C(O)=C1C2=O | – | – | < 4 | > 4 | –
4 | CC(=O)NCc1cc(N(C)C)c2c(c1O)C(=O)C1=C(O)[C@]3(O)C(=O)C(C(N)=O)=C(O)C(N(C)C)[C@@H]3C[C@@H]1C2 (stereo partly drawn) [DR] | < 4 | > 4 | – | – | –
5 | CN(C)c1cc(NCc2ccc(OC(F)(F)F)cc2)c(O)c2c1C[C@H]1C[C@H]3[C@H](N(C)C)C(O)=C(C(N)=O)C(=O)[C@@]3(O)C(O)=C1C2=O | – | – | < 4 | > 4 | –
6 | CCOC(=O)CNC(=O)c1cccc(-c2ccc(O)c3c2C[C@H]2C[C@H]4[C@H](N(C)C)C(O)=C(C(N)=O)C(=O)[C@@]4(O)C(O)=C2C3=O)c1 [GS] | < 4 | > 4 | – | – | –
7 | COC(=O)c1cc(NC(=O)c2ccno2)cc(-c2ccc(O)c3c2C[C@H]2C[C@H]4[C@H](N(C)C)C(O)=C(C(N)=O)C(=O)[C@@]4(O)C(O)=C2C3=O)c1 [IK] | < 4 | > 4 | – | – | –
8 | COc1ccc(CNc2cc(N(C)C)c3c(c2O)C(=O)C2=C(O)[C@]4(O)C(=O)C(C(N)=O)=C(O)[C@@H](N(C)C)[C@@H]4C[C@@H]2C3)cc1O | – | – | > 4 | > 4 | –
9 | CN(C)[C@@H]1C(O)=C(C(N)=O)C(=O)[C@@]2(O)C(O)=C3C(=O)c4c(O)ccc(C#N)c4C[C@H]3C[C@@H]12 | – | – | < 4 | < 4 | –
10 | CN(C)[C@@H]1C(O)=C(C(N)=O)C(=O)[C@@]2(O)C(O)=C3C(=O)c4c(O)ccc(NC5CCN(Cc6ccccc6)CC5)c4C[C@H]3C[C@@H]12 [JN] | < 4 | < 4 | – | – | –
11 | CN(C)[C@@H]1C(O)=C(C(N)=O)C(=O)[C@@]2(O)C(O)=C3C(=O)c4c(O)ccc(C(=O)Cc5ccccn5)c4C[C@H]3C[C@@H]12 [EL] | < 4 | < 4 | – | – | –
12 | CC(=O)N(Cc1cc(N(C)C)c2c(c1O)C(=O)C1=C(O)[C@]3(O)C(=O)C(C(N)=O)=C(O)[C@@H](N(C)C)[C@@H]3C[C@@H]1C2)CC(C)(C)C | – | – | > 4 | > 4 | –
13 | Cc1ccc(S(=O)(=O)NCC#Cc2cc(N(C)C)c3c(c2O)C(=O)C2=C(O)[C@]4(O)C(=O)C(C(N)=O)=C(O)C(N(C)C)[C@@H]4C[C@@H]2C3)cc1 (stereo partly drawn) [CZ] | > 4 | > 4 | – | – | –
14 | CN(C)[C@@H]1C(O)=C(C(N)=O)C(=O)[C@@]2(O)C(O)=C3C(=O)c4c(O)ccc(CNC(=O)c5cc(O)ncn5)c4C[C@H]3C[C@@H]12 | – | – | < 4 | > 4 | –
15 | CCOC(=O)/C=C/c1ccc2c(c1O)C(=O)C1=C(O)[C@]3(O)C(=O)C(C(N)=O)=C(O)[C@@H](N(C)C)[C@@H]3[C@@H](O)[C@@H]1C2C (stereo partly drawn) | – | – | – | – | MIC (S. aureus RN450; [5]): < 4 µg/mL; MIC (E. coli mL308 225; [6]): < 4 µg/mL
16 | CC1c2ccc(-c3ccccc3)c(O)c2C(=O)C2=C(O)[C@]3(O)C(=O)C(C(N)=O)=C(O)[C@@H](N(C)C)[C@@H]3[C@@H](O)[C@@H]21 (stereo partly drawn) | – | – | – | – | MIC (S. aureus RN450; [5]): < 4 µg/mL; MIC (E. coli mL308 225; [6]): < 4 µg/mL
17 | CC1c2ccc(C3C=CCC3)c(O)c2C(=O)C2=C(O)[C@]3(O)C(=O)C(C(N)=O)=C(O)[C@@H](N(C)C)[C@@H]3[C@@H](O)[C@@H]21 (stereo partly drawn) | – | – | – | – | MIC (S. aureus RN450; [5]): < 4 µg/mL; MIC (E. coli mL308 225; [6]): < 4 µg/mL
18 | C#CCOC(=O)Nc1ccc2c(c1O)C(=O)C1=C(O)[C@]3(O)C(=O)C(C(N)=O)=C(O)[C@@H](N(C)C)[C@@H]3C[C@@H]1C2 | – | – | < 4 | < 4 | –
19 | CN(C)C(=O)C(=O)c1ccc(O)c2c1C[C@H]1C[C@H]3C(N(C)C)C(O)=C(C(N)=O)C(=O)[C@@]3(O)C(O)=C1C2=O (stereo partly drawn) [MR] | < 4 | < 4 | – | – | –
20 | CN(C)c1cc(CNC(CF)CF)c(O)c2c1C[C@H]1C[C@H]3[C@H](N(C)C)C(O)=C(C(N)=O)C(=O)[C@@]3(O)C(O)=C1C2=O | – | – | < 4 | – | MIC (E. coli mL308 225; read-out: Antibiotic Activity Gram − (MIC)): > 4 µg/mL

Row | Compound | MIC (S. aureus RN450; [1]) [µg/mL] | MIC (E. coli mL308 225; [2]) [µg/mL] | MIC (S. aureus RN450; [3]) [µg/mL] | MIC (E. coli mL308 225; [4]) [µg/mL] | further results
21 | CCCCOc1ccc(I)c2c1C(=O)C1=C(O)[C@]3(O)C(=O)C(C(N)=O)=C(O)[C@@H](N(C)C)[C@@H]3C[C@@H]1C2 [OS] | > 4 | > 4 | – | – | –
22 | CCc1ccc(-c2cc(N(C)C)c3c(c2O)C(=O)C2=C(O)[C@]4(O)C(=O)C(C(N)=O)=C(O)[C@@H](N(C)C)[C@@H]4C[C@@H]2C3)cc1 [EJ] | < 4 | > 4 | – | – | –
23 | CN(C)CC(=O)Nc1ccc2c(c1O)C(=O)C1=C(O)[C@]3(O)C(=O)C(C(N)=O)=C(O)[C@@H](N(C)C)[C@@H]3C[C@@H]1C2 [DW] | < 4 | < 4 | – | – | –
24 | CN(C)[C@@H]1C(O)=C(C(N)=O)C(=O)[C@@]2(O)C(O)=C3C(=O)c4c(O)ccc(NC(=O)c5ccno5)c4C[C@H]3C[C@@H]12 [IM] | < 4 | > 4 | – | – | –
25 | CN(C)[C@@H]1C(O)=C(C(N)=O)C(=O)[C@@]2(O)C(O)=C3C(=O)c4c(O)ccc(-c5cccc(C=O)c5)c4C[C@H]3C[C@@H]12 [BF] | < 4 | < 4 | – | – | –
26 | CN(C)[C@@H]1C(O)=C(C(N)=O)C(=O)[C@@]2(O)C(O)=C3C(=O)c4c(O)cc(Cl)c(N)c4C[C@H]3C[C@@H]12 | – | – | > 4 | > 4 | –
27 | COc1ccc(-c2ccc(O)c3c2C[C@H]2C[C@H]4[C@H](N(C)C)C(O)=C(C(N)=O)C(=O)[C@@]4(O)C(O)=C2C3=O)c(OC)c1OC [JM] | < 4 | > 4 | – | – | –
28 | CN(C)[C@@H]1C(O)=C(C(N)=O)C(=O)[C@@]2(O)C(O)=C3C(=O)c4c(O)ccc(C#CCCC#Cc5ccc(O)c6c5C[C@@]5(C)C[C@@]7(C)[C@H](N(C)C)C(O)C(C(N)=O)C(=O)[C@@]7(O)C(O)=C5C6=O)c4C[C@@]3(C)C[C@@]12C (stereo partly drawn) | – | – | > 4 | > 4 | –
29 | COc1ccc(OC(=O)Nc2ccc3c(c2O)C(=O)C2=C(O)[C@]4(O)C(=O)C(C(N)=O)=C(O)[C@@H](N(C)C)[C@@H]4C[C@@H]2C3)cc1 [AS] | – | – | – | – | MIC (S. aureus RN450; [7]): < 4 µg/mL; MIC (E. coli mL308 225; read-out: Antibiotic Activity Gram −): > 4 µg/mL
30 | CN(C)c1cc(C#Cc2ccccc2)c(O)c2c1C[C@H]1C[C@H]3[C@H](N(C)C)C(O)=C(C(N)=O)C(=O)[C@@]3(O)C(O)=C1C2=O | – | – | – | – | MIC (S. aureus RN450; [5]): < 4 µg/mL; MIC (E. coli mL308 225; [6]): < 4 µg/mL
31 | CCCCN(c1ccc2c(c1O)C(=O)C1=C(O)[C@]3(O)C(=O)C(C(N)=O)=C(O)[C@@H](N(C)C)[C@@H]3C[C@@H]1C2)C1CCN(C)CC1 [JR] | > 4 | > 4 | – | – | –
32 | CC(C)COC(=O)NCc1ccc(-c2ccc(O)c3c2C[C@H]2C[C@H]4[C@H](N(C)C)C(O)=C(C(N)=O)C(=O)[C@@]4(O)C(O)=C2C3=O)cc1 | – | – | < 4 | > 4 | –
33 | CN(C)c1cc(CNCc2cc(F)c(F)c(F)c2)c(O)c2c1C[C@H]1C[C@H]3[C@H](N(C)C)C(O)=C(C(N)=O)C(=O)[C@@]3(O)C(O)=C1C2=O | – | – | < 4 | < 4 | –
34 | CCNc1ccc(-c2ccc(O)c3c2C[C@H]2C[C@H]4[C@H](N(C)C)C(O)=C(C(N)=O)C(=O)[C@@]4(O)C(O)=C2C3=O)cc1 | – | – | – | – | MIC (S. aureus RN450; [5]): < 4 µg/mL; MIC (E. coli mL308 225; [6]): < 4 µg/mL
35 | CN(C)C(=O)CNc1cc(N(C)C)c2c(c1O)C(=O)C1=C(O)[C@]3(O)C(=O)C(C(N)=O)=C(O)[C@@H](N(C)C)[C@@H]3C[C@@H]1C2 | – | – | > 4 | > 4 | –
36 | CN(C)[C@@H]1C(O)=C(C(N)=O)C(=O)[C@@]2(O)C(O)=C3C(=O)c4c(O)ccc(-c5ccc(CNC6CC6)o5)c4C[C@H]3C[C@@H]12 | – | – | < 4 | < 4 | –
37 | CN(C)[C@@H]1C(O)=C(C(N)=O)C(=O)[C@@]2(O)C(O)=C3C(=O)c4c(O)ccc(C5CCOC5)c4C[C@H]3C[C@@H]12 (stereo partly drawn) | – | – | < 4 | < 4 | –
38 | Cc1noc(C)c1-c1ccc(O)c2c1C[C@H]1C[C@H]3[C@H](N(C)C)C(O)=C(C(N)=O)C(=O)[C@@]3(O)C(O)=C1C2=O | – | – | < 4 | < 4 | –
39 | CCOP(=O)(OCC)C(Nc1cc(N(C)C)c2c(c1O)C(=O)C1=C(O)[C@]3(O)C(=O)C(C(N)=O)=C(O)[C@@H](N(C)C)[C@@H]3C[C@@H]1C2)c1ccc(OC)cc1 (stereo partly drawn) [Z] | – | – | – | – | MIC (S. aureus RN450; [7]): < 4 µg/mL
40 | CCCC(C)(C)NC(=O)C1=C(O)[C@@H](N(C)C)[C@@H]2[C@@H](O)[C@H]3C(=C(O)[C@]2(O)C1=O)C(=O)c1c(O)cccc1[C@@H]3C [P] | < 4 | – | – | – | –
